Assay results reported in a melting point compilation (Tetko et al.; mined from patent text by program, amines drawn as free bases though some values may be those of a salt).

Structure (SMILES)	melting point [°C]
COC(=O)c1ccc(NCCNC(=O)C2Cc3ccccc3N2S(=O)(=O)c2ccc(-c3cc(C(F)(F)F)ccc3Cl)cc2)cc1 (centres undefined)	96 to 98
CNC1(c2ccccc2)CCC(c2[nH]c3ccccc3c2CCc2ccncc2)CC1 (centres undefined)	224 to 227
C1C2CC3CC1CC(C2)C3=C1C2CC3CC(C2)CC1C3	185 to 186
CN(C)C(=O)Oc1ccc(C=O)c(O)c1	58 to 60
COC(=O)c1scc(-c2ccccc2)c1S(=O)(=O)NC(=O)Nc1nc(OC)cc(OC)n1	225 to 227
CC(C)C1NC(=S)N(c2ccc(N(C)C)c3ccccc23)C1=O (centres undefined)	108 to 110
O=C(CC12CC3CC(CC(C3)C1)C2)Nc1ccc2[nH]ncc2c1	265
COc1cc(C#N)ccc1C(Br)C(Br)C(=O)c1cccc(C#N)c1 (centres undefined)	72 to 75
CN1CCN(CCCNc2ncc3cc(-c4c(Cl)cccc4Cl)c(NC(=O)Nc4cccc5ccccc45)nc3n2)CC1	186 to 189
O=C(Nc1ccc(C(=O)N(CCN2CCC(C(=O)c3ccc(F)cc3)CC2)c2cccnc2)cc1)c1ccccc1	162 to 166
CC(C)Oc1ccc2c(c1)Oc1cc(F)ccc1S2(=O)=O	135 to 136
COc1cc2c(-c3cc4cc(Cl)cnc4[nH]3)cn(C)c2cc1OC	282
CCOC(=O)c1cc(O)c2c(OC(C)C)ccc(Br)c2c1	106
Cc1cc(F)c(N)cc1O	147
O=C1NCN(c2ccccc2)C12CCN(CC(O)COc1ccc(F)cc1)CC2 (centres undefined)	152 to 154
C#CCNC(=O)c1c(I)cccc1[Si](C)(C)C	109 to 111
O=C(O)CCCc1cc2nc(Cl)ccc2n1S(=O)(=O)c1ccc(F)cc1	180
O=C1c2nccc([N+](=O)[O-])c2-c2nc3ccccc3c3ccnc1c23	> 260
CC(C)C(=O)c1[nH]c(C(CC2CCCC2)c2ccc(S(C)(=O)=O)cc2)nc1F (centres undefined)	161 to 162
COc1cc(C=CC(=O)C=Cc2cc(OC)c(OC)c(OC)c2)cc(OC)c1OC	45 to 47

Structure (SMILES)	melting point [°C]
CC(C)NS(=O)(=O)c1ccc(N2CCC(=O)CC2)cc1	103 to 105
CN(C)C(=O)Sc1ccc(Br)cc1C=O	118 to 120
C[C@H](NC(=O)c1c[nH]c2ncc(-c3ccc(C(F)(F)F)cc3)nc12)C(C)(C)C	> 300
C1=C(c2c[nH]c3ccccc23)CCN(CC2COc3ccc4occc4c3O2)C1 (centres undefined)	208 to 209
CCc1csc(Cc2ccc(NC(=O)/C=C/c3cnn(C)c3-c3ccc(F)cc3)cc2)n1	211 to 212
Cc1ccc(OCC#CI)c(Cl)n1	130 to 132
CSc1cc(C(F)(F)F)ccc1C#N	80
COc1ccc(CC(NC(=O)OC(C)(C)C)C(=O)O)cc1 (centres undefined)	94 to 96
COc1cccc(C2=C(C#N)C(c3cccc4nsnc34)c3c[nH]nc3N2)c1 (centres undefined)	220
O=C(c1cnccn1)N1CCCC(c2ccccc2)=N1	98 to 100
CC1=C(C2OC(=O)NC2=O)CCCC1 (centres undefined)	104 to 106
Oc1ccc(-c2nc(-c3ccc(Sc4ccccc4)cc3)nc(-c3ccc(O)cc3O)n2)c(O)c1	> 250
COc1ccc(Cc2cc(CCNS(=O)(=O)c3ccc(Cl)cc3)cc(CCC(=O)O)c2)cc1	106 to 108
CC(=O)Nc1ccc(C(=O)Nc2ccc(O)cc2)cc1	275 to 277
Cc1oc(=O)c(Nc2ccccc2F)nc1Cl	126 to 129
O=C(O)c1ccccc1-c1ccc(C(=O)N2Cc3ccc(C(=O)NCc4cccnc4)n3Cc3ccccc32)cc1	189 to 191
Clc1ccc2ncc(Br)n2n1	132 to 137
CCOC(=O)N1CCn2c(nc(-c3ccncn3)cc2=O)C(NC(=O)c2ccc(-c3cnn(C)c3)cc2)C1 (centres undefined)	265 to 267
Cc1ccc(-c2ccc3c(c2)C=C(C(=O)Nc2ccc(CNC4CCCCC4)cc2)CCO3)cc1	183 to 184
